Marks after values point to notes of the source that are not given here.

The first data set concerns the target T1, rat mast cell chymase (Rattus norvegicus, UniProt P09650).
T1 construct: Chymase was partially purified from rat peritoneal cavity mast cells; from tissue; host or cells: peritoneal cavity mast cells of male Sprague Dawley rats
T1 sequence (P09650 21-260): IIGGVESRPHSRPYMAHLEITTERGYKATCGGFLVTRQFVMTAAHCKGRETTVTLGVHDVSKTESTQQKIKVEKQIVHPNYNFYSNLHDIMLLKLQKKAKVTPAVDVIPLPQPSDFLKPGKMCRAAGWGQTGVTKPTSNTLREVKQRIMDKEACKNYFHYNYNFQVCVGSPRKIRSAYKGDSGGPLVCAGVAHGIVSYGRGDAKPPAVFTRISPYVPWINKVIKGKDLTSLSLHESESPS
The data set is described as follows: Inhibition of chymase activity (chromogenic substrate N-Suc-Ala-Ala-Pro-Phe-p-nitroanilide). Type of data set: biochemical. To be noted: 10⁻⁵ M test compound. As to the method:
Mast cells were obtained from the peritoneal cavity of male Sprague Dawley(SD) rats by the method of Graziano et al. (Methods in Enzymol., 162, 501-514, 1988), layered on 75% Percoll (Pharmacia Biotech), and then purified to over 90% purity by centrifugation at 150xG for 15 min.
Chymase was partially purified from rat peritoneal cavity mast cells by the method of Kido et al. (Arch. Biochem. Biophys., 239, 436-443, 1985). Purified mast cells were quickly frozen and thawed several times and homogenized in a low ionic strength-buffer (pH6.5). The homogenate was centrifuged at 20,000xG for 20 min. The precipitate was re-homogenized in a high ionic strength-buffer (pH8.0) and cetrifuged at 20,000xG for 20 min. The supernatant was recovered and the enzyme was extracted. From the crude extract, chymase was partially purified by an Octyl-Sepharose CL-4B (Pharmacia Biotech) hydrophobic chromatography.
Ten microliters of test compounds in dimethyl sulfoxide (DMSO) were mixed with 250 µl of 60 mM Tris-HCl buffer (pH8.0) containing 0.2 M NaCl and 250 µl of 1 µg/ml chymase in buffer. The mixtures were pre-incubated for 5 min. at 37°C . After the addition of 500 µl of 0.6 mM chromogenic substrate, N-Suc-Ala-Ala-Pro-Phe-p-nitroanilide (Sigma), the reactions were carried out for 30 min. at 37 °C , and then stopped by the addition of 50 µl of 0.75 M acetic acid. The absorbances at 405nm were measured in a spectrophotometer, and the amount of p-nitroaniline released from the substrate was measured.
Calculations of the inhibition% of chymase by test compounds were carried out as below. Inhibition% = {1-(a-a' )/(b-b' ) } x 100 (%) [formula] a; the absorbance in presence of test compound. a'; the absorbance of non-reaction in presence of test compound. b; the absorbance in absence of test compound. b'; the absorbance of non-reaction in absence of test compound.
IC₅₀ values were expressed as the concentrations (M) of test compounds producing 50% inhibition.
Turning to `CC(C)c1ccc(COc2nnc([S+]([O-])Cc3ccc(C(C)C)cc3)n3ccnc23)cc1` (stereo not drawn) [Example 38, 8-(4-isopropylbenzyloxy)-5-(4-isopropylbenzylsulfinyl) imidazo[1,2-d][1,2,4]triazine], the “Inhibition (%) of chymase at a concentration of 10⁻⁵ M” value (“Inhibition (%) of chymase” for short) was determined as 41% *.

Take `[O-][S+](Cc1ccc(C(F)(F)F)cc1)c1nnc(OCc2ccc(C(F)(F)F)cc2)c2nccn12` (stereo not drawn) [Example 42, 8-(4-trifluoromethylbenzyloxy)-5-(4-trifluoromethylbenzylsulfinyl)imidazo[1,2-d][1.2.4]triazine]: the “Inhibition (%) of chymase” value was 11%*.

Take `CCOc1nnc([S+]([O-])CC)n2ccnc12` (stereo not drawn) [Example 46, 8-ethoxy-5-ethylsulfinylimidazo[1,2-d][1.2.4]triazine]: the “Inhibition (%) of chymase” value is 5 % *.

For `[O-][S+](CCCCl)c1nnc(OCCCCl)c2nccn12` (stereo not drawn) [Example 51, 8-(3-chloropropoxy)-5-(3-chloropropyl)sulfinylimidazo[1,2-d][1.2.4]triazine], the “Inhibition (%) of chymase” value is recorded as 50% *.

As for `CCOC(=O)COc1nnc([S+]([O-])CC(=O)OCC)n2ccnc12` (stereo not drawn) [Example 52, 8-ethoxycarbonylmethyloxy-5-ethoxycarbonylmeth ylsulfinylimidazo[1,2-d][1.2.4]triazine], the “Inhibition (%) of chymase” value was determined as 39% *.

For `CCOc1nnc([S+]([O-])CC)n2cnc(C)c12` (stereo not drawn) [Example 55, 1-ethoxy-4-ethylsulfinyl-8-methylimidazo[1,5-d][1.2.4]triazine], the “Inhibition (%) of chymase” value is reported as 22% *.

With `CCn1nc([S+]([O-])CC)n2cnc(C)c2c1=O` (stereo not drawn) [Example 56, 2-ethyl-4-ethylsulfinyl-8-methylimidazo[1,5-d][1.2.4]triazine-1(2H)-one], the “Inhibition (%) of chymase” value stood at 8% *.

A further data set relates to mouse macrophage cell line, RAW264. The experiment in a line: Inhibition of LPS-induced nitric oxide (NO) production, nitrite by Griess reaction. Type of data set: cell-based. As to conditions: 10⁻⁵ M test compound, RAW264, 1 µg/ml LPS, 36hr. As to the method:
The mouse macrophage cell line, RAW264, obtained from the Riken Cell Bank, was cultured in RPMI-1640 medium without phenol red containing 10% inactivated fetal bovine serum and 100 µg/ml kanamycin at 37°C in 5% CO₂ in air. Cells were seeded into 96-well tissue culture plates (6x10⁴ cells/well) and allowed to adhere for 4 hr at 37 °C . To assess the effects of test compounds on induction of NO production, 100 µl of fresh culture medium containing them were added to the medium, followed by the additions of 1 µg/ml of LPS (E Coli 055, derived from B5 cell line, DIFCO Co.) to activate macrophage cells. At the same time, cultivation was conducted in the presence or absence of a test compound.
Since the measurement of NO is difficult due to the unstableness of NO, the nitrite ion (NO₂⁻) which is the oxidation product of NO was measured.
Productions of NO were assayed by measuring the concentrations of NO₂⁻ in culture medium by the Griess reaction by the method of Green et al. (Anal. Biochem., 126, 131-138, 1982). Nitrite accumulation in the cell culture medium was measured 36hr after LPS-stimulations. One hundred microliters of Griess reagents (1% sulfanylamide and 0.1% N-1-naphthylethylenediamine dichloride in 5% phosphoric acid) were added to 100 µl of cell culture medium at a room temperature. After 10 min, the optical densities at 550 nm (OD550) were measured by using a microplate reader.
In unstimulated RAW264 macrophages, NO₂⁻ production for 36 hr was not determined in the presence or absence of test compounds. Calculations of the inhibition% of NO production by the test compounds were carried out as depicted below. Inhibition% = (1-a/b)x100(%) [formula] a; the OD550 in presence of test compound b; the OD550 in absence of test compound IC₅₀ values were expressed as the concentrations (M) of test compounds producing 50% inhibition.
Regarding `Cc1ncn2c([S+]([O-])Cc3ccc(Cl)cc3)nnc(O)c12` (stereo not drawn) [Example 33, 4-(4-chlorobenzylsulfinyl)-1-hydroxy-8-methyl imidazo [1,5-d][1.2.4]triazine], the “Inhibition (%) of NO production at the concentration of 10⁻⁵ M” value (“Inhibition (%) of NO production” below) is 4 * %.

`[O-][S+](Cc1ccc(Cl)cc1)c1nnc(OCc2ccc(Cl)cc2)c2nccn12` (stereo not drawn) [Example 35, 8-(4-chlorobenzyloxy)-5-(4-chlorobenzylsulfinyl)imidazo[1,2-d][1.2.4]triazine]: the “Inhibition (%) of NO production” value is 20 * %.

`[O-][S+](Cc1ccc(Cl)cc1)c1nnc(OCc2ccc(Cl)cc2)c2cccn12` (stereo not drawn) [Example 36, 1-(4-chlorobenzyloxy)-4-(4-chlorobenzylsulfinyl)pyrrolo [1,2-d][1.2.4]triazine]: the “Inhibition (%) of NO production” value is listed as 31 * %.

With `[O-][S+](Cc1cccc(Cl)c1)c1nnc(OCc2cccc(Cl)c2)c2nccn12` (stereo not drawn) [Example 40, 8-(3-chlorobenzyloxy)-5-(3-chlorobenzylsulfinyl)imidazo[1,2-d][1.2.4]triazine], the “Inhibition (%) of NO production” value is listed as 32 * %.

As for `N#Cc1ccc(COc2nnc([S+]([O-])Cc3ccc(C#N)cc3)n3ccnc23)cc1` (stereo not drawn) [Example 41, 8-(4-cyanobenzyloxy)-5-(4-cyanobenzylsulfinyl)imidazo[1,2-d][1.2.4]triazine], the “Inhibition (%) of NO production” value is 49 * %.

Consider `[O-][S+](Cc1ccc(C(F)(F)F)cc1)c1nnc(OCc2ccc(C(F)(F)F)cc2)c2nccn12` (stereo not drawn) [Example 42, 8-(4-trifluoromethylbenzyloxy)-5-(4-trifluoromethylbenzylsulfinyl)imidazo[1,2-d][1.2.4]triazine], for which the “Inhibition (%) of NO production” value is 8 * %.

Another data set has as its system ICR mice. The data set is described as follows: Single-dose toxicity. Type of data set: in vivo. As to conditions: male ICR mice, p.o. 500 mg/kg single dose, observed for 14 days. On the procedure: Ten Male ICR mice (4-week-old) were housed in each group. Test compounds were suspended in 0.5% aqueous sodium methyl cellulose, and then administered p.o. at the dose of 500 mg/kg to mice. Animals were then observed for 14 days and the mortality rate was determined. […]
As for `[O-][S+](Cc1ccc(Cl)cc1)c1nnc(O)c2cccn12` (stereo not drawn) [Example 29, 4-(4-chlorobenzylsulfinyl)-1-hydroxypyrrolo[1,2-d][1.2.4]triazine], the “The number of death/ The number of animal” value (“The number” for short) was 0/10.

`[O-][S+](Cc1ccc(Cl)cc1)c1nnc(O)c2nccn12` (stereo not drawn) [Example 31, 5-(4-chlorobenzylsulfinyl)-8-hydroxyimidazo[1,2-d][1.2.4]triazine]: the “The number” value is 0/10.

As to `[O-][S+](Cc1ccc(Cl)cc1)c1nnc(OCc2ccc(Cl)cc2)c2nccn12` (stereo not drawn) [Example 35, 8-(4-chlorobenzyloxy)-5-(4-chlorobenzylsulfinyl)imidazo[1,2-d][1.2.4]triazine], the “The number” value is 0/10.

Consider `Cc1ncn2c([S+]([O-])Cc3ccc(Cl)cc3)nnc(OCc3ccc(Cl)cc3)c12` (stereo not drawn) [Example 53, 1-(4-chlorobenzyloxy)-4-(4-chlorobenzylsulfinyl)-8-methylimidazo[1,5-d][1.2.4]triazine], for which the “The number” value is on record as 0/10.

For the compound `Cc1ncn2c([S+]([O-])Cc3ccc(Cl)cc3)nn(Cc3ccc(Cl)cc3)c(=O)c12` (stereo not drawn) [Example 54, 2-(4-chlorobenzyl)-4-(4-chlorobenzylsulfinyl)-8-methyl imidazo[1,5-d][1.2.4]triazine-1(2H)-one], the “The number” value is given as 0/10.

For the origin of these results see patent EP0713876A1, “Triazine derivative, chymase activity inhibitor and nitric oxide production inhibitor” (Wakamoto Pharmaceutical Co., Ltd., priority 1994, dated 1996).
